Assay results published in patent US6509371B1, “Compositions containing Bergamottin for increasing the oral bioavailability of pharmaceutical agents” (Warner-Lambert Company, priority 1997, dated 2003).

Legend:
P450 2C9 = target: T1, P450 2C9 (Homo sapiens, UniProt P11712); test: Human liver microsomes, tolbutamide hydroxylation; type: biochemical; details: pooled human liver microsomes
T1 construct: Pooled human liver microsomes; from tissue; host or cells: human liver microsomes, pool of 6
Experimental: (§1) Human liver tissues were obtained from the University of Chicago Distribution Center of […] (Liver Transplant Procurement and Distribution Service, University of Minnesota, Minneapolis, Minn.), Human Biologics Inc. (Phoenix, Ariz.) and the International Institute for the Advancement of Science (Exton, Pa.). The liver microsomes were prepared by differential centrifugation. […] Anal. […] S. Hydroxylation of chlorzoxazone as a specific probe for human liver cytochrome P-450 IIEI. Chem. Res. […] The reactions were initiated by the additions of 1 mM NADPH and terminated in ice. […] A. Assay of mephenytoin metabolism in human liver microsomes by high-performance liquid chromatography. […] Experimental controls consisted of the complete incubation components without the addition of BG.

P450 3A4 [1] = target: T2, P450 3A4 (Homo sapiens, UniProt P08684); test: Human liver microsomes, testosterone 6β-hydroxylation; type: biochemical; details: pooled human liver microsomes
Experimental: as §1
Target sequence in this assay (P08684 whole entry): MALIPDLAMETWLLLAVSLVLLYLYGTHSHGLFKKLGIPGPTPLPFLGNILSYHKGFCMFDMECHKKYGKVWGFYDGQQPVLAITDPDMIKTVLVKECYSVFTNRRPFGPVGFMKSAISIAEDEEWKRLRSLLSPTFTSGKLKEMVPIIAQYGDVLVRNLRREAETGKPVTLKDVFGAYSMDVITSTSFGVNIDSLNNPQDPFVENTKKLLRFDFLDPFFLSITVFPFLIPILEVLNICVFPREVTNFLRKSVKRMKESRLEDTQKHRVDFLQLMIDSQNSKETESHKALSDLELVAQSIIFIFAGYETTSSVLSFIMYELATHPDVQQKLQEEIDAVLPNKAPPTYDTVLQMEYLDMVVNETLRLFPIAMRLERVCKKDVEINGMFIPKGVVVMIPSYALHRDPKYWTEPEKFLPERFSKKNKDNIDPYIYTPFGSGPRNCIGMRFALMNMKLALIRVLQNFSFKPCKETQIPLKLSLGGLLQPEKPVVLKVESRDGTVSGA

P450 2C19 = target: T3, P450 2C19 (Homo sapiens, UniProt P33261); test: Human liver microsomes, (S)-mephenytoin 4′-hydroxylation; type: biochemical; details: pooled human liver microsomes, probe (S)-mephenytoin (50 μM), read-out: P450 2C19 activity inhibited
T3 construct: incubated with pooled human liver microsomes; from tissue; host or cells: pooled human liver microsomes
Experimental: (§2) Human liver tissues were obtained from the University of Chicago Distribution Center of […] (Liver Transplant Procurement and Distribution Service, University of Minnesota, Minneapolis, Minn.), Human Biologics Inc. (Phoenix, Ariz.) and the International Institute for the Advancement of Science (Exton, Pa.). The liver microsomes were prepared by differential centrifugation. Caffeine N3-demethylation (Tassaneeyakul W., Mohammed […]., Veronese M. E., Tukey R. H., Quattrochi […]., and Miners J. O. Caffeine as a probe for human cytochromes P450: Validation using cDNA-expression,immunoinhibition, and microsomal kinetic and inhibitor techniques. Pharmacogenetics, 1992;2:173-183), coumarin 7-hydroxylation ([…]. Metabolism of coumarin by rat, gerbil, and human liver microsomes. Xenobiotica, 1992;22:357-367), tolbutamide hydroxylation (Miners J. O., Smith K. J., Robson […]., Veronese M. E., and Birkett D. J. Tolbutamide hydroxylation by human liver microsomes: Kinetic characterization and relationship to other cytochrome P-450 dependent xenobiotic oxidations. Biochem. Pharmacol., 1988;37:1137-1144), racemic bufurolol 1'-hydroxylation ([…]., Gut […]., and Meyer U. A. […] Anal. […] S. Hydroxylation of chlorzoxazone as a specific probe for human liver cytochrome P-450 IIEI. Chem. Res. […] The reactions were initiated by the additions of 1 mM NADPH and terminated in ice. […]

P450 2D6 = target: T4, P450 2D6 (Homo sapiens, UniProt P10635); test: Human liver microsomes, racemic bufurolol 1′-hydroxylation; type: biochemical; details: pooled human liver microsomes
T4 construct: Pooled human liver microsomes; from tissue; host or cells: human liver microsomes, pool of 6
Experimental: as §2

P450 2E1 = target: T5, P450 2E1 (Homo sapiens, UniProt P05181); test: Human liver microsomes, chlorzoxazone 6-hydroxylation; type: biochemical; details: pooled human liver microsomes
T5 construct: Pooled human liver microsomes; from tissue; host or cells: human liver microsomes, pool of 6
Experimental: as §2

P450 3A4 [2] = target: T2, P450 3A4; test: P450 content by reduced-CO difference spectrum after incubation in the reconstituted system; type: biochemical; parameters: A full-length P450 3A4 cDNA (except for the deletion of codons 3-12 at the 5′-end); made in house; host or cells: E. coli MV1304 (pCW vector); details: 50 μM BG, 15 minutes; for P450: 37° C.
Experimental: Reactions with various concentrations of BG were initiated by addition of 1 mM NADPH, and terminated on ice. The incubations were performed at 37° C. for the time periods indicated. […] The spectra were recorded between 330 to 700 nm against the diluting buffer as reference on a […] spectrophotometer in the split beam mode.
Target sequence in this assay (P08684 with tags, fused parts or gaps): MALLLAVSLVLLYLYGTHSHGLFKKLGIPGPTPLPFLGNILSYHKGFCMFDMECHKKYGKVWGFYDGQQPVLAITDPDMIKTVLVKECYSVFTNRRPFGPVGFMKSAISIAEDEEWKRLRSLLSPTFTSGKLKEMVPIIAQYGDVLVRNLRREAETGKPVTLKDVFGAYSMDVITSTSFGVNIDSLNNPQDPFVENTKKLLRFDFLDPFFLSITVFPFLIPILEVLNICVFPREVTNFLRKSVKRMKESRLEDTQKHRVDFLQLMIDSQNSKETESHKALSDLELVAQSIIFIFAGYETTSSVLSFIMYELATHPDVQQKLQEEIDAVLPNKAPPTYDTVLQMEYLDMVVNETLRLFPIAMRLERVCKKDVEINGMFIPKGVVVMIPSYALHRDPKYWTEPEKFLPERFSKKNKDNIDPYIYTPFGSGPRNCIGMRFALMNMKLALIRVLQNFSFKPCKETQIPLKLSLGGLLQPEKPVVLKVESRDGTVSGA

P450 2A6 = target: T6, P450 2A6 (Homo sapiens, UniProt P11509); test: Human liver microsomes, coumarin 7-hydroxylation; type: biochemical; details: pooled microsomes, 4 μM coumarin
T6 construct: Pooled human liver microsomes; from tissue; host or cells: human liver microsomes, pool of 6
T6 sequence (P11509 1-494): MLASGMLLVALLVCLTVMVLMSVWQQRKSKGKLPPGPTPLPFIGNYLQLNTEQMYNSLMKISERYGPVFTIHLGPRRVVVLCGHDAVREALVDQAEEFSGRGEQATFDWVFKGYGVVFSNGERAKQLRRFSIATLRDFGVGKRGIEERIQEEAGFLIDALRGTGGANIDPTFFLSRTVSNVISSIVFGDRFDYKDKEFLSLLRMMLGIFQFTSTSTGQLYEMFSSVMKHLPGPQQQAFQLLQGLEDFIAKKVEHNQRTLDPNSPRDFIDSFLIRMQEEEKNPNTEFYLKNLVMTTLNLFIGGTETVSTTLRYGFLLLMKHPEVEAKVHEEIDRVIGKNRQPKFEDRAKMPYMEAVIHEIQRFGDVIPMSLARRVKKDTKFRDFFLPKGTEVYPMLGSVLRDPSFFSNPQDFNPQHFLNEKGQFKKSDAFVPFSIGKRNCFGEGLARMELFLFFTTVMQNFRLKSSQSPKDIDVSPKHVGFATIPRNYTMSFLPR
Experimental: as §2

P450 3A4 [3] = target: T2, P450 3A4; test: BG-mediated inactivation of P450 3A4 in a reconstituted system, testosterone 6β-hydroxylation activity
Target sequence in this assay (P08684 with tags, fused parts or gaps): as the sequence (P08684 with tags, fused parts or gaps) above

P450 1A2 = target: T7, P450 1A2 (Homo sapiens, UniProt P05177); test: Human liver microsomes, caffeine N3-demethylation; type: biochemical; details: pooled microsomes, 100 μM caffeine
T7 sequence (P05177 1-516): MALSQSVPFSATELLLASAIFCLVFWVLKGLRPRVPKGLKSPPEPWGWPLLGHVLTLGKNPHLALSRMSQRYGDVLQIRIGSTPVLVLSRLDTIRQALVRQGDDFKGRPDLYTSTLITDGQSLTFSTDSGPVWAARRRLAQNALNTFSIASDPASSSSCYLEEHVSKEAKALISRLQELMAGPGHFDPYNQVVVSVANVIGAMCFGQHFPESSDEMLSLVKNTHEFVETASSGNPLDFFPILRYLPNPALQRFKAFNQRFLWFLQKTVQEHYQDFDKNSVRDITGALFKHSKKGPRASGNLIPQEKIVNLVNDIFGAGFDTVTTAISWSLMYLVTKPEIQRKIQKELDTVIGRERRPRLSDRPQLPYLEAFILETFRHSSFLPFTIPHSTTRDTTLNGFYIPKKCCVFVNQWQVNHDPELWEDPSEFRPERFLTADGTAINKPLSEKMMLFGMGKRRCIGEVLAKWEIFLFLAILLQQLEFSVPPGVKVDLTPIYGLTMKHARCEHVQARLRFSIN
Experimental: as §2

P450 3A4 [4] = target: T2, P450 3A4; test: HPLC analysis of BG-inactivated P450 3A4 on a Poros column; type: biochemical; parameters: A full-length P450 3A4 cDNA (except for the deletion of codons 3-12 at the 5′-end); made in house; host or cells: E. coli MV1304 (pCW vector)
Excerpt: S., Hopkins N. E., Alworth D. A., and Hollenberg P. F. […] The eluate was monitored by UV detection at […], 310, and 405 nm simultaneously.
Target sequence in this assay (P08684 with tags, fused parts or gaps): as the sequence (P08684 with tags, fused parts or gaps) above

[5] = human, pH 7.5, probe testosterone (200 μM), 6β-hydroxylation

T3 sequence (P33261 whole entry): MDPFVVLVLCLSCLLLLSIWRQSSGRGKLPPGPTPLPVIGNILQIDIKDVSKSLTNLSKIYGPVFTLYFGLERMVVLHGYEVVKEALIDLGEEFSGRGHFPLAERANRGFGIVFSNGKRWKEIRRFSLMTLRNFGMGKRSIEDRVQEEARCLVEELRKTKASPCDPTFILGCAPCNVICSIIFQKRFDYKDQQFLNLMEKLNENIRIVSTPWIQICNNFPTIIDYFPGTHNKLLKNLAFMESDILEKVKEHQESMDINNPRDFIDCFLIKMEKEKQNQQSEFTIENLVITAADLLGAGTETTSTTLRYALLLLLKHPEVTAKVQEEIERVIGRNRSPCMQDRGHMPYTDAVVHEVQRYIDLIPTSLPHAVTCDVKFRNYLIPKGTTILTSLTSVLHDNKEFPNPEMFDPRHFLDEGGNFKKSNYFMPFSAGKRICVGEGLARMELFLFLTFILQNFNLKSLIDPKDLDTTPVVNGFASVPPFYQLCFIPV
T4 sequence (P10635 whole entry): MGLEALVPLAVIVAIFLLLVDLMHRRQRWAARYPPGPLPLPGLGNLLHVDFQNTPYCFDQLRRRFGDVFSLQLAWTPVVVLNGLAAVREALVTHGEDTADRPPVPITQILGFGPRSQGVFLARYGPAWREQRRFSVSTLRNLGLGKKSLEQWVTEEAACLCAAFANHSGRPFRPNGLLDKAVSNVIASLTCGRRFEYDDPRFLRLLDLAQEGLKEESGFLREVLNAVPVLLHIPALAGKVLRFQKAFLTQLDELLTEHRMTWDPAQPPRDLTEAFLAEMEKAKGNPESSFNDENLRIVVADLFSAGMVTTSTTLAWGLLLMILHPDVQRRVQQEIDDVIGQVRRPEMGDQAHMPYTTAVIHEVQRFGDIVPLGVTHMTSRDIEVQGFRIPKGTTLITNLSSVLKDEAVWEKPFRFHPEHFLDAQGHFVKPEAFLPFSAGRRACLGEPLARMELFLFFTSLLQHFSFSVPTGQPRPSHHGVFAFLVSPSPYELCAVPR
T1 sequence (P11712 whole entry): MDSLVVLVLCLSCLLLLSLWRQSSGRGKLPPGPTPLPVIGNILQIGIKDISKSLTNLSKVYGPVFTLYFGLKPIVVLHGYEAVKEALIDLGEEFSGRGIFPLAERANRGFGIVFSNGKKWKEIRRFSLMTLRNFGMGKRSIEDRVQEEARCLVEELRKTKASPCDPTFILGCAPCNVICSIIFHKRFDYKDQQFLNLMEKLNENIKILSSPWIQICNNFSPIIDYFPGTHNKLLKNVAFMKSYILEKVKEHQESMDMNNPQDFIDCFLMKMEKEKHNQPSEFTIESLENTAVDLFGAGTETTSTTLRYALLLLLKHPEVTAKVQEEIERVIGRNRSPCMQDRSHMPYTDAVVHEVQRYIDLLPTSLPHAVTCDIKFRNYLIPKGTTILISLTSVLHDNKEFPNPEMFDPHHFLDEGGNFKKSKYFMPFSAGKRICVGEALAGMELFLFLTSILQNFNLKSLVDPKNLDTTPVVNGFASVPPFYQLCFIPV
T5 sequence (P05181 whole entry): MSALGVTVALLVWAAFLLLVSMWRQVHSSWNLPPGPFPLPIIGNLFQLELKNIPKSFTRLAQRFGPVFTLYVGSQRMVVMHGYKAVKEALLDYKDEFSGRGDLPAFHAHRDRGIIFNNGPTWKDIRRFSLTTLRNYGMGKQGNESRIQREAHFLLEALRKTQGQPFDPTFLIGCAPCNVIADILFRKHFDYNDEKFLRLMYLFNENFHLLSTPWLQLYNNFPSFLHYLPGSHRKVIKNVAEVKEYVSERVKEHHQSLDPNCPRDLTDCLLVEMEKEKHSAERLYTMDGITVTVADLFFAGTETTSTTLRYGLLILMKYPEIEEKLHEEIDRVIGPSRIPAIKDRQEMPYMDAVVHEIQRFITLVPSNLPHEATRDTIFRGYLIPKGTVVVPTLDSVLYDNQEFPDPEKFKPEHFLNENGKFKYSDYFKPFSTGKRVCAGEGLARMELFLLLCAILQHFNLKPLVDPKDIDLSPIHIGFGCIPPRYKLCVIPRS

IC50 (P450 2C9): ~2.4 µM
IC50 (P450 3A4 [1]): ~4.6 µM
inhibition at 2 μM (P450 2C19; 2 μM BG): ~71%
inhibition at 20 μM (P450 2C19; 20 μM BG): ~100%
IC50 (P450 2D6): ~3 µM
IC50 (P450 2E1): ~3.9 µM
decrease of P450 content (reduced-CO spectrum) (P450 3A4 [2]; with NADPH): approximately 40%
P450 (P450 3A4 [2]; BG+/NADPH+): 0.27 nmol/mL
P450 (P450 3A4 [2]; BG+/NADPH−): 0.47 nmol/mL
P450 2A6 activity in human liver microsomes (P450 2A6): inhibited
inactivation of testosterone 6β-hydroxylation activity (P450 3A4 [3]; 2 μM BG with α-naphathoflavone 6 to 50 μM): about 55%
loss of testosterone 6β-hydroxylation activity (P450 3A4 [3]; 50 μM BG, with NADPH, 37° C., 15 minutes): 90%
Testosterone 6β-hydroxylation (P450 3A4 [3]; BG+/NADPH+, 50 μM BG, 37° C., 15 minutes): 0.8 nmol/min/nmol
Testosterone 6β-hydroxylation (P450 3A4 [3]; BG+/NADPH−, 50 μM BG, 37° C., 15 minutes): 2.9 nmol/min/nmol
KI (inactivation) (P450 3A4 [3]; [5]): 7.7 µM
inhibition at 50 μM (P450 3A4 [3]; [5]): ~60%
inhibition at […] (P450 3A4 [3]; [5]): ~55%
kinact (P450 3A4 [3]; read-out: Kinactivation (maximal rate constant of inactivation)): 0.005 s⁻¹
Kinactivation (maximal rate constant of inactivation) (P450 3A4 [3]; reconstituted system): 0.3 min⁻¹
P450 1A2 activity in human liver microsomes (P450 1A2): inhibited
decrease of the amount of apoP450 3A4 (P450 3A4 [4]; 50 μM BG, reverse phase HPLC, vs −NADPH control): about 50%
heme recovered (P450 3A4 [4]; BG inactivated P450 3A4 sample): Approximately 90%
reductase and cytochrome b5 protein recovered from the column (P450 3A4 [4]; compared with −NADPH controls): ~100%
SMILES: CC(C)=CCC/C(C)=C/COc1c2ccoc2cc2oc(=O)ccc12 [BG, (E)-4-[(3,7-dimethyl-2,6-octadienyl)oxy]-7H-furo[3,2-g][1]benzopyran-7-one]
